The record followed here is US20250136934A1, “PRODUCTION OF INDUCED MIDBRAIN DOPAMINERGIC PROGENITOR CELLS FROM PLURIPOTENT STEM CELLS” (NUWACELL BIOTECHNOLOGIES CO., LTD., priority 2023, published 2025).

This test deals with FOXA2+ imDAP cells. Briefly: FACS analysis of FOXA2 expression of imDAP cells derived from hiPSCs. Conditions: 4-step protocol, Day 16. Format: cell-based, human. How it is done: • 1. Individualize and collect cells by either Accutase or TrypLE treatment. • 2. Wash cells with 1 ml PBS and pellet cells at 250×g for […]. • 3. Remove supernatant, add ˜200 μl of 4% PFA, mix and fix for 10 min at RT. • 4. Pellet cells at 350×g for 5 min. • 5. Wash cells by 1 ml of FACS buffer and pellet cells at 350×g for 5 min. • 6. Remove supernatant, add 200 μl/tube of FACS buffer/0.1% Triton X, mix for 10 min at RT. • 7. Wash cells by 1 ml of FACS buffer and pellet cells at 350×g for 5 min. • 8. Remove supernatant, add 200 μl/tube of primary antibody diluted in FACS buffer, mix gently, and incubate for 30 min at RT. • 9. Wash cells by 1 ml of FACS buffer and pellet cells at 350×g for 5 min. • 10. Remove supernatant, and add 200 μl of secondary antibody diluted in FACS buffer, mix gently, and incubate for 30 min at RT. • 11. Wash cells by 1 ml of FACS buffer and pellet cells at 300×g for 5 min. • 12. Remove supernatant, add 200 μl of FACS buffer, and run samples on the flow cytometer.
On Day-1, EB formation (Stage 1) was carried out by dissociating hiPSCs (Nuwacell) to form a single-cell suspension and resuspending it in Epic medium (Nuwacell, #RP01001) containing 10 μM Blebbistatin (MCE, #HY-13441) in T25 flasks on a belly dancer and culturing the cells overnight. On Day 0, ventral midbrain floor plate differentiation (Stage 2) was initiated by changing the medium to a Stage 2-1 differentiation medium containing DMEM: F12/B27 (plus Vitamin A) (98:2, v/v) as basal medium and supplemented with 0.2 μM LDN193189, 10 μM SB431542, 1 μg/mL SHH C24II and 1.25 μM CHIR99021 and culturing the cells for 3 Days. From Day 3, the basal medium was changed to DMEM: F12/B27 (minus Vitamin A) (98:2, v/v), and CHIR concentration was boosted to 7.5 μM until Day 10 (Stage 2-2). SB431542 was withdrawn on Day 4, and SHH C24II was withdrawn on Day 8. From Day 10 (Stage 2-3), the medium was changed to a differentiation medium containing DMEM: F12/B27 (minus Vitamin A) (98:2, v/v) as basal medium and supplemented with 0.2 μM LDN193189 and 3 μM CHIR99021. During the cell culture, each of the differentiation media was replaced every day. On Day 16 (at the end of S2-3), EBs were dissociated for single cells and collected for analysis. The cells of each group were stained with FOXA2-PE antibody (BD, #561689), the percentage of FOXA2+ imDAP cells were analyzed by flow cytometry (FIG. 5). The above experiment was repeated for three times and the derived imDAP cells were named as Lot1, Lot2 and Lot3, respectively.
On Day-1, EB formation (Stage 1) was carried out by dissociating hiPSCs (Nuwacell) to form a single-cell suspension and resuspending it in Epic medium (Nuwacell, #RP01001) containing 10 μM Blebbistatin (MCE, #HY-13441) in T25 flasks on a belly dancer and culturing the cells overnight. On Day 0, ventral midbrain floor plate differentiation (Stage 2) was initiated by changing the medium to a Stage 2-1 differentiation medium containing DMEM: F12/B27 (plus Vitamin A) (98:2, v/v) as basal medium and supplemented with 0.2 μM LDN193189, 20 μM SB431542, 1.2 μM CHIR99021, and 1 μg/mL SHH C24II or the combination of SHH agonists including 500 ng/mL SHH C24II, 2 μM Purmorphamine and 10 nM SAG and culturing the cells for 3 days. From Day 3, the basal medium was changed to DMEM: F12/B27 (minus Vitamin A) (98:2, v/v). Cells were exposed to Boost-CHIR concentration of 7.5 μM starting from Day 4 to Day 6 (Stage 2-2), followed by a low CHIR concentration of 1.2 μM (Stage 2-3) until Day 10. […]
For orientation: A flow cytometer gives signals particle by particle.

Turning to `Cc1cnc(-c2cnc(NCCNc3ccc(C#N)cn3)nc2-c2ccc(Cl)cc2Cl)[nH]1` [CHIR, CHIR99021], the “percentage of cells positive for FOXA2” value by setting is: (low CHIR concentration 1.2 μM in Stage 2-3 (Day 8 to Day 10)) 91.02%; (low CHIR concentration 1.4 μM in Stage 2-3 (Day 8 to Day 10)) 81.89%; (low CHIR concentration 1.6 μM in Stage 2-3 (Day 8 to Day 10)) 85.96%.
